According to patent US5316919A, “Method of producing 2 KD to 10 KD peptides having no L-methionine residue” (priority 1992, dated 1994):
Where no end group is shown, it is not given here.

Test system: male ICR mice
Experiment: Effects on the blood pressure (caudal vein blood pressure, noninvasive sphygmomanometer) after intravenous injection
Format: in vivo
Settings: 40 μg/kg by injection into the caudal vein, male ICR mice of 5 weeks of age
Description: Two of the compounds of the invention were each administered to male ICR mice of 5 weeks of age by injection into the caudal vein at a dose of 40 μg/kg. […]
In addition, the activity was of long duration. The peptides of the invention have therapeutic utility.

Substance	caudal vein blood pressure relative to physiological saline taken as 100% (5 min after administration)	caudal vein blood pressure relative to physiological saline taken as 100% (10 min after administration)	caudal vein blood pressure relative to physiological saline taken as 100% (15 min after administration)	caudal vein blood pressure relative to physiological saline taken as 100% (20 min after administration)
H-HSDAVFTDNYTRLRKQLAVKKYLNSILNGP-OH [Peptide of Reference Example 3, H-His-Ser-Asp-Ala-Val-Phe-Thr-Asp-Asn-Tyr-Thr-Arg-Leu-Arg-Lys-Gln-Leu-Ala- Val-Lys-Lys-Tyr-Leu-Asn-Ser-Ile-Leu-Asn-Gly-Pro-OH]	58.9%	74.1%	94.3%	105.5%
vasoactive intestinal polypeptide (HSDAVFTDNYTRLRKQMAVKKYLNSILN; ends and bridges not checked; UniProt P01282 125-152, looked up) [Naturally occurring VIP, reference compound]	83.3%	97.2%	95.9%	102.8%
H-HSDAVFTDNYTRLRKQLAVKKYLNSILNGPEA-OH [Peptide of Reference Example 1, H-His-Ser-Asp-Ala-Val-Phe-Thr-Asp-Asn-Tyr-Thr-Arg-Leu-Arg-Lys-Gln-Leu-Ala- Val-Lys-Lys-Tyr-Leu-Asn-Ser-Ile-Leu-Asn-Gly-Pro-Glu-Ala-OH]	71.1%	66.4%	74.9%	77.9%
